Test results reported in patent publication US20080112967A1, “Process for Refining Ganoderma Spore Polysacchoride” (NANJING ZHONGKE GROUP CORP., LTD., priority 2006, published 2008).

Tests used:
[1] = test system: mouse transplantation tumor Heps; assay: inhibitory action of No. 1, oral pour stomach administration, on mouse transplantation tumor Heps; details: masculine reference, dosage 30 mg/kg, once a day, 7 times
Description: (§1) 1.1 The test medicine: the reference Ganoderma spore polysaccharide (it is named No. 1), it is produced by the method disclosed in the CN1483743, the specific steps is: add Ganoderma spore powder into distilled water, the added amount can shape the Ganoderma spore, shake it up, pelletize, dry in the air, use CO2 supercritical extraction method to remove fat, weigh 10 kg Ganoderma spore which is removed fat, add it into the abstraction pot, add 150 Kg water, soak it for 2 h, heat to boil, keep reflux for 4 h, centrifuge the extracting solution, condense the filtrate to 5 Kg, add three times 95% ethanol, lay it 24 h, filter the polysaccharide precipitation, dry the precipitation so as to obtain the Ganoderma spore polysaccharide.
(§2) 1.2 Animal:ICR mouse, 18-22 g, half male and half female, the mouses is provided by China drug section university animal laboratory. The number of certificate of conformity is: SCXK (SU)2002-0011. The feedstuff is diet pellet, it is provided by China drug section university animal laboratory. Breeding condition: air conditioning room, Temperature 18-24° C., Relative humidity: 70%.
(§3) 1.3 Masculine Drug: endoxan (CTX), HENGRUI MEDICINE CO LTD JIANG. Specification: 200 mg/bottle, Batch Number: 06060121.
3.1.1 administration route: oral pour stomach (ip)
3.1.2 administration period: Inoculate Heps entity type by transplantation tumor methodology, after inoculating 24 h, administrate to the mouse and ip administrate, once a day, administrate for 7 times, at the next day when the administration is stopped, kill the mouse.
(§4) 3.1.3 dosage, there are four groups:
(§5) blank reference group(normal saline)
(§6) 3.1.4 experimental method: Take 40 above-mentioned mouses (Heps entity type inoculated by transplantation tumor methodology), after the mouse is inoculated, weigh the mouse, and divide them into 4 groups, there is 10 mouses in every groups, half male and half female, blank reference group and CTX group are negative and masculine reference group. After inoculating 24 h, administrate to the mouse and ip administrate, once a day, administrate for 7 times, at the next day when the administration is stopped, weigh the mouses and kill them, weigh the weight of tumor, statisticaly treat the obtained data (t verify).

[2] = test system: mouse transplantation tumor S180; assay: inhibitory action of No. 2, intravenous injection administration, on mouse transplantation tumor S180; details: masculine reference, dosage 30 mg/kg, once on alternate days, 4 times
Excerpt: (§7) 1.1 The test medicine: the Ganoderma spore polysaccharide of the present invention (produced by the method of the present invention, it is named No.2.).
as §2, with “Animal: ICR” for “Animal:ICR”, “ertificate” for “certificate”, “SCXK(SU)2002-0011.” for “SCXK (SU)2002-0011.”
(§8) 1.3 Masculine drug: endoxan (CTX), HENGRUI MEDICINE CO LTD JIANG.
3.2.1 administration route: intravenous injection (iv)
3.2.2 administration period: Inoculate S180 entity type by transplantation tumor methodology, after inoculating 24 h, administrate to the mouse and ip administrate, once on alternate days, administrate for 4 times, at the next day when the administration is stopped, kill the mouse.
(§9) 3.2.3 dosage, there are four groups:
(§10) blank reference group (normal saline)
as §6, with “3.2.4” for “3.1.4”, “(S180” for “(Heps”, “on alternate days,” for “a day,”, “4” for “7”, “t verify.” for “(t verify).”

[3] = test system: mouse transplantation tumor Heps; assay: inhibitory action of No. 2, intravenous injection administration, on mouse transplantation tumor Heps; details: masculine reference, dosage 30 mg/kg, once on alternate days, 4 times
Excerpt: as §7
as §2, with “Animal: ICR” for “Animal:ICR”, “ertificate” for “certificate”, “SCXK(SU)2002-0011.” for “SCXK (SU)2002-0011.”
as §8
3.1 the inhibitory action of the No. 2 intravenous injection (iv) administration to the mouse transplantation tumor Heps.
3.1.1 administration route: intravenous injection (iv)
3.1.2 administration period: Inoculate Heps entity type by transplantation tumor methodology, after inoculating 24 h, administrate to the mouse and ip administrate, once on alternate days, administrate for 4 times, at the next day when the administration is stopped, kill the mouse.
as §4, §10
as §6, with “CTX: 20 mg/kg 3.1.4” for “3.1.4”, “on alternate days,” for “a day,”, “4” for “7”, “statistically” for “statisticaly”

[4] = test system: mouse transplantation tumor S180; assay: inhibitory action of No. 1, oral pour stomach administration, on mouse transplantation tumor S180; details: masculine reference, dosage 30 mg/kg, once a day, 7 times
Description: as §1, §2, §3
3.2.1 administration route: oral pour stomach […]
3.2.2 administration period: Inoculate S180 entity type by transplantation tumor methodology, after inoculating 24 h, administrate to the mouse and ip administrate, once a day, administrate for 7 times, at the next day when the administration is stopped, kill the mouse.
as §9, §5
as §6, with “3.2.4” for “3.1.4”, “(S180” for “(Heps”, “t verify.” for “(t verify).”

O=P1(N(CCCl)CCCl)NCCCO1 (stereo not shown) [CTX, endoxan]
The rate of inhibiting tumor (%) [1]: 64.60% | Weight(g) After anministration ([1]; X ± SD, n = 10): 24.3 ± 2.41 g | Weight(g) Before anministration ([1]; X ± SD, n = 10): 20.1 ± 1.30 g | the weight of tumor ([1]; X ± SD, n = 10): 0.43 ± 0.15 g | The rate of inhibiting tumor (%) [2]: 65.81% | Weight(g) After anministration ([2]; X ± SD, n = 10): 24.3 ± 1.68 g | Weight(g) Before anministration ([2]; X ± SD, n = 10): 20.1 ± 0.94 g | the weight of tumor ([2]; X ± SD, n = 10): 0.51 ± 0.18 g | The rate of inhibiting tumor (%) [3]: 64.60% | Weight(g) After anministration ([3]; X ± SD, n = 10): 24.3 ± 2.41 g | Weight(g) Before anministration ([3]; X ± SD, n = 10): 20.1 ± 1.30 g | the weight of tumor ([3]; X ± SD, n = 10): 0.43 ± 0.15 g | The rate of inhibiting tumor (%) [4]: 65.81% | Weight(g) After anministration ([4]; X ± SD, n = 10): 24.3 ± 1.68 g | Weight(g) Before anministration ([4]; X ± SD, n = 10): 20.1 ± 0.94 g | the weight of tumor ([4]; X ± SD, n = 10): 0.51 ± 0.18 g
